Converted amounts (≈) assume the structure as drawn.

The test system of experiment [1] is Staphylococcus aureus. The experiment in a line: Antimicrobial activity against Staphylococcus aureus ATCC 29213 incubated at 37 degC for 24 hrs by agar dilution method. The following applies: ATCC 29213, 24 h.
In experiment [2] the test system is Staphylococcus aureus. The experiment in a line: Antimicrobial activity against Staphylococcus aureus isolate CIP 107907 harboring vgaA gene incubated at 37 degC for 24 hrs by agar dilution method. The following applies: isolate CIP 107907, 24 h. On the technique in general: Agar dilution tests growth on a series of plates holding different concentrations.
For experiment [3], the system named is Staphylococcus epidermidis. The experiment can be described thus: Antimicrobial activity against lincomycin resistant Staphylococcus epidermidis isolate 102OL harboring lnuA gene incubated at 37 degC for 24 hrs by agar dilution method.
Experiment [4] relates to Staphylococcus haemolyticus. The experiment can be described thus: Antimicrobial activity against lincomycin resistant Staphylococcus haemolyticus isolate 123PL harboring lnuA gene incubated at 37 degC for 24 hrs by agar dilution method.
The subject of experiment [5] is Staphylococcus epidermidis. The experiment in a line: Antimicrobial activity against erythromycin resistant Staphylococcus epidermidis isolate 129OV harboring msrA gene incubated at 37 degC for 24 hrs by agar dilution method.
Experiment [6] concerns Staphylococcus haemolyticus. The experiment can be described thus: Antimicrobial activity against erythromycin resistant Staphylococcus haemolyticus isolate 202BB harboring msrA gene incubated at 37 degC for 24 hrs by agar dilution method.
Experiment [7] has as its system Staphylococcus haemolyticus. The experiment in a line: Antimicrobial activity against lincomycin, clindamycin resistant Staphylococcus haemolyticus isolate 29OL harboring vgaALC gene incubated at 37 degC for 24 hrs by agar dilution method.
The test system of experiment [8] is Staphylococcus haemolyticus. The experiment in a line: Antimicrobial activity against erythromycin, lincomycin resistant Staphylococcus haemolyticus isolate 113OL harboring msrA lnuA gene incubated at 37 degC for 24 hrs by agar dilution method.
Experiment [9] concerns Staphylococcus epidermidis. The experiment can be described thus: Antimicrobial activity against erythromycin, lincomycin, clindamycin resistant Staphylococcus epidermidis isolate 44KR harboring ermC gene incubated at 37 degC for 24 hrs by agar dilution method.
Experiment [10] concerns Staphylococcus haemolyticus. The experiment in a line: Antimicrobial activity against erythromycin, lincomycin, clindamycin resistant Staphylococcus haemolyticus isolate 134PL harboring ermC gene incubated at 37 degC for 24 hrs by agar dilution method.
Experiment [11] deals with Staphylococcus haemolyticus. The experiment can be described thus: Antimicrobial activity against erythromycin, lincomycin, clindamycin resistant Staphylococcus haemolyticus isolate 65OL harboring ermC vgaALC gene incubated at 37 degC for 24 hrs by agar dilution method.
For experiment [12], the system named is Staphylococcus epidermidis. The experiment in a line: Antimicrobial activity against erythromycin, lincomycin, clindamycin resistant Staphylococcus epidermidis isolate 1036UL harboring ermC vgaALC gene incubated at 37 degC for 24 hrs by agar dilution method.
Experiment [13] has as its system Staphylococcus epidermidis. The experiment can be described thus: Antimicrobial activity against erythromycin, lincomycin, clindamycin resistant Staphylococcus epidermidis isolate 32OL harboring msrA lnuA vgaALC gene incubated at 37 degC for 24 hrs by agar dilution method.
The subject of experiment [14] is Staphylococcus epidermidis. The experiment can be described thus: Antimicrobial activity against erythromycin, inducible lincomycin, inducible clindamycin resistant Staphylococcus epidermidis isolate 32PL harboring ermC gene incubated at 37 degC for 24 hrs by agar dilution method.
Experiment [15] concerns Staphylococcus haemolyticus. The experiment in a line: Antimicrobial activity against erythromycin, inducible lincomycin, inducible clindamycin resistant Staphylococcus haemolyticus isolate 31UL harboring ermC gene incubated at 37 degC for 24 hrs by agar dilution method.

On to `CCC[C@@H]1C[C@@H](C(=O)N[C@@H]([C@H]2O[C@H](SC)[C@H](O)[C@@H](O)[C@H]2O)[C@@H](C)O)N(C)C1` [LINCOMYCIN], for which the minimum inhibitory concentration (MIC) (usually the smallest concentration in the dilution series that meets the test's criterion for growth inhibition) came out at 1 µg/mL (≈ 2.46 µM) in the experiment with Staphylococcus aureus [1]; 4 µg/mL (≈ 9.84 µM) in the experiment on Staphylococcus aureus [2]; 64 µg/mL (≈ 157 µM) in [3]; 128 µg/mL (≈ 315 µM) in experiment [4]; 1 µg/mL (≈ 2.46 µM) in experiment [5]; 1 µg/mL (≈ 2.46 µM) in [6]. Further, the MIC in experiment [7] was 64 µg/mL (≈ 157 µM); in experiment [8], 128 µg/mL (≈ 315 µM); in [9] it was 64 µg/mL (≈ 157 µM); in [10], 32 µg/mL (≈ 78.7 µM); in [11] it was 128 µg/mL (≈ 315 µM); in experiment [12], above 256 µg/mL. Moreover, the MIC in experiment [13] was above 256 µg/mL; in [14] it was 1 µg/mL (≈ 2.46 µM); in [15], 1 µg/mL (≈ 2.46 µM).
Take `CCC[C@@H]1C[C@@H](C(=O)N[C@@H]([C@H]2O[C@H](SC)[C@H](O)[C@@H](O)[C@H]2O)[C@H](C)Cl)N(C)C1` [CLINDAMYCIN]: the minimum inhibitory concentration (MIC) against Staphylococcus aureus [1] is 0.125 µg/mL (≈ 0.294 µM); against Staphylococcus aureus [2], 0.25 µg/mL (≈ 0.588 µM); in experiment [3] it was 1 µg/mL (≈ 2.35 µM); in experiment [4] it was 2 µg/mL (≈ 4.71 µM); in [5], 0.25 µg/mL (≈ 0.588 µM); in experiment [6], 0.125 µg/mL (≈ 0.294 µM). In addition, the MIC in experiment [7] was 16 µg/mL (≈ 37.6 µM); in experiment [8], 1 µg/mL (≈ 2.35 µM); in experiment [9], above 16 µg/mL; in experiment [10] it was above 16 µg/mL; in experiment [11], 4 µg/mL (≈ 9.41 µM); in experiment [12], above 16 µg/mL. For the same compound, the values for the MIC in experiment [13], in experiment [14] and in experiment [15] were 16 µg/mL (≈ 37.6 µM), 0.125 µg/mL (≈ 0.294 µM) and 0.5 µg/mL (≈ 1.18 µM), respectively.
On to `CCCCC[C@@H]1C[C@@H](C(=O)N[C@@H]([C@H]2O[C@H](SC)[C@H](O)[C@@H](O)[C@H]2O)[C@@H](C)O)N(C)C1`, for which the MIC in the experiment with Staphylococcus aureus [1] was found to be 0.25 µg/mL (≈ 0.575 µM); in the experiment on Staphylococcus aureus [2], 0.5 µg/mL (≈ 1.15 µM); in [3] it was 2 µg/mL (≈ 4.6 µM); in experiment [4] it was 8 µg/mL (≈ 18.4 µM); in [5], 0.25 µg/mL (≈ 0.575 µM); in experiment [6], 0.25 µg/mL (≈ 0.575 µM). The MIC in experiment [7] is 32 µg/mL (≈ 73.6 µM); in [8], 8 µg/mL (≈ 18.4 µM); in experiment [9], 64 µg/mL (≈ 147 µM); in experiment [10], 32 µg/mL (≈ 73.6 µM); in [11] it was 128 µg/mL (≈ 295 µM); in [12] it was 64 µg/mL (≈ 147 µM). The MIC is 64 µg/mL (≈ 147 µM) in [13], 0.25 µg/mL (≈ 0.575 µM) in [14] and 0.5 µg/mL (≈ 1.15 µM) in [15].

Source of the values: ChEMBL document CHEMBL1212782, “Mutasynthesis of lincomycin derivatives with activity against drug-resistant staphylococci” (2010).
